Assay results taken from patent US12162819B2, “Ionizable lipid compounds” (Beijing Jitai Pharmaceutical Technology Co., Ltd., priority 2022, dated 2024).

Columns and labels:
[1] = system: human embryonic kidney cells 293 (HEKi293T cells); assay: In vitro delivery of luciferase mRNA nanoparticles, luciferase expression (RLU); format: cell-based; details: HEK293T cells, LNP with luciferase mRNA, 24 h
Procedure: (§1) Lipid nanoparticles were prepared by (1) dissolving and mixing ionizable lipid compounds, cholesterol, phospholipids and polyethylene glycolated lipids in ethanol at (molar percentages) 50%, 38.5%, 10% and 1.5%, respectively; (2) dissolving the mRNA active ingredient in 25 mM sodium acetate solution (pH=4.5); (3) using an automated high-throughput microfluidic system to mix the organic phase containing the lipid mixture and the aqueous phase containing the mRNA component in the flow ratio range of 1:1 to 1:4 at a mixing speed of 10 mL/min to 18 mL/min; (4) the prepared lipid nanoparticles (N/P ratio of 6) were diluted with phosphate buffer solution and the nanoparticle solutions were ultrafiltered to the original preparation volume using ultrafiltration tubes (purchased from Millipore) with a cut-off molecular weight of 30 kDa; and (5) the obtained nanoparticles were filtered through a sterile 0.2 μm filter membrane and then stored in a sealed glass vial at low temperature.
(§2) The delivery effect and safety of nanoparticles encapsulated with luciferase mRNA were evaluated at the cellular level in vitro. The cells used in the assay were human embryonic kidney cells 293 (HEKi293T cells) cultured in DMEM (Dulbecco's Modified Eagle Medium) (purchased from Thermo Fisher) containing […] fetal bovine serum and […] penicillin-streptomycin double antibiotics at a indoor temperature of 37° C. and a CO2 concentration of […]. The cells were uniformly dispersed and spread in 48-well plates, and incubated in the incubator for 24 h. Then a solution of the lipid nanoparticles encapsulated with luciferase mRNA were added. After 24 h, the cells were lysed, and the intracellular expression intensity and relative light units (RLU) of luciferase in each type of lipid nanoparticles were measured with a luciferase detection reagent (purchased from Promega). The higher the intensity of expression, the higher the delivery efficiency of the lipid material at the cellular level. Meanwhile, CCK-8 reagent (purchased from DOJINDO) was used in cytotoxicity testing for the parallel lipid nanoparticle-treated cell groups after 24 hours. In the test, the group of cells to which only PBS was added was used as a negative control. The procedure was as follows: after the addition of CCK-8 solution, the cells were left to stand in an incubator at 37° C. for 4 h. The absorbance values were read on a multifunctional microplate reader at an absorbance band of 450 nm. The ratio of the absorbance value of the nanoparticle-treated cells to that of the negative control was used as a characterization parameter for cell viability.

[2] = Particle size and PDI of lipid nanoparticles by dynamic light scattering; format: physicochemical; details: lipid nanoparticle with the cationic lipid, cholesterol, DSPC, DMG-PEG2000 (50/38.5/10/1.5 mol%), luciferase mRNA, N/P 6
Procedure: as §1
(§3) The particle size and particle size dispersity index (PDI) of the prepared lipid nanoparticles were measured using a Zetasizer Pro (purchased from Malvern Instruments Ltd) and a DynaPro NanoStar (purchased from Wyatt) dynamic light scattering instrument. The degree of RNA encapsulation by lipid nanoparticles was characterized by the Encapsulation Efficiency %, which reflects the degree of binding of lipid nanoparticles to RNA fragments. This parameter was measured by the method of Quant-It™ RiboGreen RNA Assay (purchased from Invitrogen). Lipid nanoparticle samples were diluted in TE buffer (10 mM Tris-HCl, 1 mM EDTA, pH=7.5). A portion of the sample solution was removed, to which 0.5% Triton (Triton X-100) was added, and then allowed to stand at 37° C. for 30 minutes. Immediately after the addition of RIBOGREEN® reaction solution, the fluorescence values were read on a Varioskan LUX multifunctional microplate reader (purchased from Thermofisher) at 485 nm for absorption and 528 nm for emission to give the encapsulation efficiency values.

[3] = system: human embryonic kidney cells 293 (HEKi293T cells); assay: CCK-8 cytotoxicity testing of lipid nanoparticle-treated cells; format: cell-based; set-up: concentration or dose not given beside the values; details: HEK293T cells, LNP-treated 24 h, CCK-8, ratio to PBS negative control
Procedure: as §1, §2

[4] = Encapsulation efficiency of lipid nanoparticles, Quant-It RiboGreen RNA Assay; format: physicochemical; details: lipid nanoparticle with the cationic lipid, luciferase mRNA
Procedure: as §1, §3

C57BL/6 mice = assay: In vivo bioluminescence assay of lipid nanoparticles encapsulated with luciferase mRNA in mice; details: C57BL/6 mice, intravenous, single dose 0.5 mg/kg luciferase mRNA in LNP, 6 h after administration, group mean
Procedure: as §1
The delivery effect and safety of nanoparticles encapsulated with luciferase mRNA (Trilink, L-7202) in mice were evaluated. The test mice were SPF-grade C57BL/6 mice, female, 6-8 weeks old, weighing 18-22 g, and were purchased from SPF (Beijing) Biotechnology Co., Ltd. All animals were acclimatized for more than 7 days prior to the experiment, and had free access to food and water during the experiment. The conditions include alternating light and dark for 12/12 h, the indoor temperature of 20-26° C. and the humidity of 40-70%. The mice were randomly grouped. The lipid nanoparticles encapsulated with luciferase mRNA prepared above were injected into mice by intravenous administration at a single dose of 0.5 mg/kg mRNA, and the mice were subjected to in vivo bioluminescence assay using a Small Animal In Vivo Imaging System (IVIS LUMINA III, purchased from PerkinElmer) at 6 h after administration. The assay was performed as follows: D-luciferin solution was prepared in saline at a concentration of 15 mg/mL, and each mouse was given the substrate by intraperitoneal injection. At ten minutes after administration of the substrate, the mice were anesthetized in an anesthesia chamber with isoflurane at a concentration of 2.5%. The anesthetized mice were placed in IVIS for fluorescence imaging, and data acquisition and analysis were performed on the concentrated distribution area of fluorescence.
The in vivo delivery efficiency of lipid nanoparticle carriers was expressed as the mean values of fluorescence intensity and total photon count in different animals within the same subject group, as shown in Table 5. Higher values of fluorescence intensity and total photon count indicate higher in vivo delivery efficiency of this mRNA fragment by lipid nanoparticles. The lipid nanoparticles containing the cationic lipids of the present disclosure have good in vivo delivery efficiency.

SMILES	Luciferase luminescence (RLU) [1] [RLU]	Particle size (nm) [2] [nm]	Particle size dispersity (PDI) [2]	Cell viability (%) [3] [%]	Encapsulation efficiency (%) [4] [%]	Total photon count in vivo at 6 hours after administration (Total Flux) (C57BL/6 mice)
CCCCCCCCCOC(=O)C(C)(C)CCCCCC(CCCCCC(C)(C)C(=O)OCCCCCCCCC)OC(=O)CCCCCN(C)C [Compound 32]	6.99E+06	116.61	0.07	96.25	99.02	–
CCCCCCCCCSC(=O)C(C)(C)CCCCCC(CCCCCC(C)(C)C(=O)SCCCCCCCCC)OC(=O)CCCN(C)C [Compound 37]	1.04E+07	92.18	0.03	97.48	89.07	–
CCCCCCCCCOC(=O)C(C)(C)CCCCCC(CCCCCC(C)(C)C(=O)SCCCCCCCCC)OC(=O)CCCN(C)C (stereo not shown) [Compound 41]	1.23E+07	104.27	0.05	104.91	93.91	–
CCCCCCCCCOC(=O)CC(C)(C)CCCCC(CCCCC(C)(C)CC(=O)OCCCCCCCCC)OC(=O)CCCN(C)C [Compound 97]	–	157.00	0.25	–	93.72	3.37E+09
CCCCCCCCCCOC(=O)C(C)(C)CCCCCC(CCCCCC(C)(C)C(=O)OCCCCCCCCCC)OC(=O)C1CCN(C)CC1 [Compound 99]	–	139.99	0.05	–	90.69	5.30E+09
CCCCCCCCOC(=O)C(C)(C)CCCCCC(CCCCCC(C)(C)C(=O)OCCCCCCCC)OC(=O)C1CCN(C)CC1 [Compound 100]	1.98E+06	118.19	0.07	104.67	83.29	–
CCCCCCCCCSC(=O)C(C)(C)CCCCCC(CCCCCC(C)(C)C(=O)SCCCCCCCCC)OC(=O)CC1CCN(CCO)CC1 [Compound 110]	–	97.59	0.01	–	92.65	2.06E+08
CCCCCCCCCOC(=O)C(C)(C)CCCCCC(CCCCCC(C)(C)C(=O)OCCCCCCCCC)OC(=O)CC1CCN(CCO)CC1 [Compound 113]	–	112.65	0.03	–	94.77	3.59E+08
CCCCCCCCCOC(=O)C(C)(C)CCCCCC(CCCCCC(C)(C)C(=O)OCC(CCCCC)CCCCCCC)OC(=O)CC1CCN(CCO)CC1 (stereo not shown) [Compound 114]	–	72.32	0.04	–	93.41	1.06E+08
CC(C)CCCCCCCOC(=O)CCC(C)(C)CCCC(CCCC(C)(C)CCC(=O)OCCCCCCCC(C)C)OC(=O)CCCN(C)C [Compound 127]	–	83.01	0.05	–	62.35	3.59E+10
CCCCC/C=C\C/C=C\CCCCCCCCC(CCCCCCCC/C=C\C/C=C\CCCCC)OC(=O)CCCN(C)C [DLin-MC3-DMA, reference compound]	2.95E+06	96.83	0.04	97.84	95.62	–
